Measurements published in patent publication US20080293646A1, “MACROLIDES” (Pfizer Inc, priority 2007, published 2008).
In brackets after ≈: the same amount, converted by molar mass. Structures can show the parent of a compound that is named as a salt. Where two headings read alike, the source gives them in different places.

Tests used:
S. pyogenes mefA = test: MIC, microtiter broth dilution, S. pyogenes mefA isolates; format: cell-based, Streptococcus pyogenes; settings: for MIC50 / MIC90: Streptococcus pyogenes
S. pneumoniae mefA = test: MIC, microtiter broth dilution, S. pneumoniae mefA isolates; format: cell-based, Streptococcus pneumoniae; settings: for MIC50 / MIC90: Streptococcus pneumoniae
[1] = tested on: H. influenzae Telithromycin (susceptible); test: MIC, microtiter broth dilution, telithromycin-susceptible H. influenzae; format: cell-based, Haemophilus influenzae; settings: for MIC50 / MIC90: Haemophilus influenzae
[2] = HLM ER (human liver microsomes extraction ratio); format: in vitro ADME; settings: 1 μM compound, NADPH, 37° C., <0.32 is lower limit of assay
Procedure: HLM ER: (human liver microsomes extraction ratio). This assay measures clearance of compound over time in the human liver microsome system due to NADPH-dependent oxidative metabolism. […] Assay Procedure: […] The reaction mixture was pre-incubated at 37° C. for 5 minutes before adding betanicotinamide adenine dinucleotide phosphate—reduced tetrasodium salt (NADPH) (1.0 mM). Aliquots of the incubation mixture were removed at 0, 5, 10, 20, 30 and 45 minutes. The aliquots were quenched in acetonitrile containing internal standard. Samples were centrifuged and the resulting supernatant analyzed by liquid chromatography/mass spectrometry (LC/MS/MS), with a Sciex API4000 using multiple reaction monitoring optimized for each test compound. […] The first order disappearance rate constant was determined for each incubation by plotting natural log(LN) substrate concentration (peak area ratio, drug/internal standard) against incubation time and determining the slope of the regression line (k), using data where an accurate first order decay curve could be obtained. Predicted hepatic clearances (CLH) and extraction ratios were calculated according to the following equations: […] where the following constants were: Liver Weight=21 g/kg [human] Microsomal Protein in Incubation=1.52 mg/mL Liver Protein=45 mg/g [human] Liver Blood Flow (QH)=20 mL/min/kg [human]

CYP3A = CYP3A (Homo sapiens, UniProt P08684); test: CYP3A time-dependent inhibition in human liver microsomes (midazolam probe); settings: pooled human liver microsomes, pH 7.4, probe midazolam (30 μM, 1'-hydroxymidazolam formation)
[3] = tested on: H. influenzae Telithromycin (intermediate); test: MIC, microtiter broth dilution, telithromycin-intermediate H. influenzae; format: cell-based, Haemophilus influenzae; settings: for MIC50 / MIC90: Haemophilus influenzae
S. pneumoniae emB/mefA = test: MIC, microtiter broth dilution, S. pneumoniae ermB/mefA isolates; format: cell-based, Streptococcus pneumoniae; settings: for MIC50 / MIC90: Streptococcus pneumoniae
M. catarrhalis = test: MIC, microtiter broth dilution, M. catarrhalis; format: cell-based, Moraxella catarrhalis; settings: for MIC50 / MIC90: Moraxella catarrhalis
S. pneumoniae ermB = test: MIC, microtiter broth dilution, S. pneumoniae ermB isolates; format: cell-based, Streptococcus pneumoniae; settings: for MIC50 / MIC90: Streptococcus pneumoniae
L. pneumophila = test: microbe, parasite or virus in culture; format: cell-based, Legionella pneumophila; settings: for MIC Range: L. pneumophila, n=10 isolates; for MIC50 / MIC90: Legionella pneumophila
[4] = S. pyogenes mefA, n=23 isolates
[5] = S. pneumoniae mefA, n=39 isolates
[6] = H. influenzae telithromycin (susceptible), n=82 isolates
[7] = H. influenzae telithromycin (intermediate), n=12 isolates
[8] = S. pneumoniae emB/mefA, n=45 isolates
[9] = S. pneumoniae ermB, n=34 isolates
[10] = S. pyogenes mefA, n=23 isolates, read-out: MIC50
[11] = S. pyogenes mefA, n=23 isolates, read-out: MIC90
[12] = S. pneumoniae mefA, n=39 isolates, read-out: MIC90
[13] = H. influenzae telithromycin (susceptible), n=82 isolates, read-out: MIC50
[14] = H. influenzae telithromycin (susceptible), n=82 isolates, read-out: MIC90
[15] = H. influenzae telithromycin (intermediate), n=12 isolates, read-out: MIC50
[16] = H. influenzae telithromycin (intermediate), n=12 isolates, read-out: MIC90
[17] = S. pneumoniae emB/mefA, n=45 isolates, read-out: MIC50
[18] = S. pneumoniae emB/mefA, n=45 isolates, read-out: MIC90
[19] = M. catarrhalis, n=30 isolates, read-out: MIC90
[20] = S. pneumoniae ermB, n=34 isolates, read-out: MIC50
[21] = S. pneumoniae ermB, n=34 isolates, read-out: MIC90

CYP3A, sequence (P08684 2-503): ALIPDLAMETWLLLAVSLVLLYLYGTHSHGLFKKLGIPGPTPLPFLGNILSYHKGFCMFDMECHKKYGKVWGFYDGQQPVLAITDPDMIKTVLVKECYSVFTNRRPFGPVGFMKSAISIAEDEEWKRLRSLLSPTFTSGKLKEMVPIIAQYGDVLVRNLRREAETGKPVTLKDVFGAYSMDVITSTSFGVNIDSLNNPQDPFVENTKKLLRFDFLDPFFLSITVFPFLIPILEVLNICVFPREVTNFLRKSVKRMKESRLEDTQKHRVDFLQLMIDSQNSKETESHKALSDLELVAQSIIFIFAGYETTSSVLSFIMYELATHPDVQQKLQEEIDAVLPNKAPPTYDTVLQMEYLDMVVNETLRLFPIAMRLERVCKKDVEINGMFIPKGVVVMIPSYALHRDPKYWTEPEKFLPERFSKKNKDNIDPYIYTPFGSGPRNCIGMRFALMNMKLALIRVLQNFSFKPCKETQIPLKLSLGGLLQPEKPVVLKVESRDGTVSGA

SMILES	MIC Range (S. pyogenes mefA; [4])	MIC Range (S. pneumoniae mefA; [5])	MIC50 (S. pneumoniae mefA)	MIC Range [1, 6]	MIC Range [3, 7]	MIC Range (S. pneumoniae emB/mefA; [8])	MIC Range (M. catarrhalis; M. catarrhalis, n=30 isolates)	MIC50 (M. catarrhalis)	MIC Range (S. pneumoniae ermB; [9])	MIC Range (L. pneumophila)	MIC50 (L. pneumophila)	MIC90 (L. pneumophila)	MIC50 (S. pyogenes mefA; [10])	MIC90 (S. pyogenes mefA; [11])	MIC90 (S. pneumoniae mefA; [12])	MIC50 [1, 13]	MIC90 [1, 14]	MIC50 [3, 15]	MIC90 [3, 16]	MIC50 (S. pneumoniae emB/mefA; [17])	other results
CC[C@H]1OC(=O)[C@H](C)C(=O)[C@H](C)[C@@H](O[C@@H]2O[C@H](C)C[C@H](N(C)C)[C@H]2O)[C@](C)(OC)C[C@@H](C)C(=O)[C@H](C)[C@H]2N(C3CN(Cc4c(O)cnc5cccnc45)C3)C(=O)O[C@]12C [Example 1, 3-Descladinosyl-11,12-dideoxy-6-O-methyl-3-oxo-12,11-(oxycarbonyl-(1-((3-hydroxy-[1,5]-naphthyridin-4-yl)methyl)-azetidin-3-yl)-imino)-erythromycin A Fumarate]	0.5 to 1 µg/mL	≦0.06-1 μg/mL	0.125 µg/mL	1 to 8 µg/mL	4 to 8 µg/mL	≦0.0625-1 μg/mL	0.008 to 0.25 µg/mL	0.03 µg/mL	≦0.0625-2 μg/mL	0.008 to 0.03 µg/mL	0.016 µg/mL	0.03 µg/mL	–	–	–	–	–	–	–	–	MIC50 (S. pyogenes mefA): 0.5 µg/mL; MIC90 (S. pyogenes mefA): 1 µg/mL; MIC90 (S. pneumoniae mefA): 0.5 µg/mL; MIC50 [1]: 2 µg/mL; MIC90 [1]: 4 µg/mL; HLM ER [2]: <0.32; Ki (CYP3A): 24 µM; kinact (CYP3A): 0.0004 s⁻¹; MIC50 [3]: 4 µg/mL; MIC90 [3]: 8 µg/mL; MIC50 (S. pneumoniae emB/mefA): 0.5 µg/mL; MIC90 (S. pneumoniae emB/mefA): 1 µg/mL; MIC90 (M. catarrhalis): 0.06 µg/mL; MIC50 (S. pneumoniae ermB): ≤ 0.0625 µg/mL; MIC90 (S. pneumoniae ermB): 1 µg/mL
CC1(C)S[C@@H]2[C@H](NC(=O)[C@H](N)c3ccc(O)cc3)C(=O)N2[C@H]1C(=O)O [amoxicillin]	0.004 to 0.03 µg/mL	–	–	–	–	–	–	–	–	–	–	–	0.008 µg/mL (≈ 0.0219 µM)	0.016 µg/mL (≈ 0.0438 µM)	–	–	–	–	–	–	–
CC[C@H]1OC(=O)[C@H](C)[C@@H](O[C@H]2C[C@@](C)(OC)[C@@H](O)[C@H](C)O2)[C@H](C)[C@@H](O[C@@H]2O[C@H](C)C[C@H](N(C)C)[C@H]2O)[C@](C)(O)C[C@@H](C)CN(C)[C@H](C)[C@@H](O)[C@]1(C)O [azithromycin]	–	–	–	–	–	–	–	–	–	0.03 to 0.06 µg/mL	0.06 µg/mL (≈ 0.0801 µM)	0.06 µg/mL (≈ 0.0801 µM)	–	–	–	–	–	–	–	–	–
CC[C@H]1OC(=O)[C@H](C)[C@@H](O[C@H]2C[C@@](C)(OC)[C@@H](O)[C@H](C)O2)[C@H](C)[C@@H](O[C@@H]2O[C@H](C)C[C@H](N(C)C)[C@H]2O)[C@](C)(O)C[C@@H](C)C(=O)[C@H](C)[C@@H](O)[C@]1(C)O [erythromycin]	8 to 32 µg/mL	2 to 16 µg/mL	–	1 to 16 µg/mL	8 to 16 µg/mL	–	0.03 to 1 µg/mL	–	–	–	–	–	8 µg/mL (≈ 10.9 µM)	16 µg/mL (≈ 21.8 µM)	16 µg/mL (≈ 21.8 µM)	8 µg/mL (≈ 10.9 µM)	16 µg/mL (≈ 21.8 µM)	16 µg/mL (≈ 21.8 µM)	16 µg/mL (≈ 21.8 µM)	> 64 µg/mL	MIC50 (S. pneumoniae mefA; S. pneumoniae mefA, n=39 isolates, read-out: MIC50): 8 µg/mL (≈ 10.9 µM); MIC90 (S. pneumoniae emB/mefA; [18]): > 64 µg/mL; MIC50 (M. catarrhalis; M. catarrhalis, n=30 isolates, read-out: MIC50): 0.25 µg/mL (≈ 0.341 µM); MIC90 (M. catarrhalis; [19]): 0.25 µg/mL (≈ 0.341 µM); MIC50 (S. pneumoniae ermB; [20]): > 64 µg/mL; MIC90 (S. pneumoniae ermB; [21]): > 64 µg/mL
CC[C@H]1OC(=O)[C@H](C)C(=O)[C@H](C)[C@@H](O[C@@H]2O[C@H](C)C[C@H](N(C)C)[C@H]2O)[C@](C)(OC)C[C@@H](C)C(=O)[C@H](C)[C@H]2N(CCCCn3cnc(-c4cccnc4)c3)C(=O)O[C@]12C [telithromycin]	0.25 to 2 µg/mL	≦0.06-0.5 μg/mL	0.125 µg/mL (≈ 0.154 µM)	0.25 to 4 µg/mL	8 µg/mL (≈ 9.85 µM)	≦0.0625-1 μg/mL	0.006 to 0.5 µg/mL	0.125 µg/mL (≈ 0.154 µM)	≦0.0625-1 μg/mL	0.016 to 0.03 µg/mL	0.016 µg/mL (≈ 0.0197 µM)	0.016 µg/mL (≈ 0.0197 µM)	0.5 µg/mL (≈ 0.616 µM)	0.5 µg/mL (≈ 0.616 µM)	0.5 µg/mL (≈ 0.616 µM)	1 µg/mL (≈ 1.23 µM)	4 µg/mL (≈ 4.93 µM)	8 µg/mL (≈ 9.85 µM)	8 µg/mL (≈ 9.85 µM)	0.5 µg/mL (≈ 0.616 µM)	MIC90 (S. pneumoniae emB/mefA; [18]): 0.5 µg/mL (≈ 0.616 µM); MIC90 (M. catarrhalis; [19]): 0.25 µg/mL (≈ 0.308 µM); MIC50 (S. pneumoniae ermB; [20]): ≤ 0.0625 µg/mL; MIC90 (S. pneumoniae ermB; [21]): 0.5 µg/mL (≈ 0.616 µM)
